Assay results as given in ChEMBL document CHEMBL1201862, “PubChem BioAssay data set” (2004).
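Interpolation was linear, between the two tested concentrations surrounding the appropriate level; five concentrations were tested over 48 hours in 96-well plates. GI50 marks 50% less growth.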 The source made the active and inactive calls. Cut-off read from the data, not from the text of the source: active = GI50 up to about 1.1 µM and inactive = higher.

Assays:
Assay in all cases: inhibition of tumour cell growth, NCI panel, 48 h
[1] = test system: MCF7
[2] = test system: RPMI-8226
[3] = test system: SR
[4] = test system: NCI-H23
[5] = test system: BT-549
[6] = test system: MOLT-4
[7] = test system: SK-MEL-2
[8] = test system: SN12C
[9] = test system: NCI/ADR-RES
[10] = test system: SK-MEL-5
[11] = test system: DU-145
[12] = test system: HCT-116
[13] = test system: HT-29
[14] = test system: M14
[15] = test system: SW-620
[16] = test system: DMS-273
[17] = test system: CAKI-1
[18] = test system: Hs-578T
[19] = test system: OVCAR-8
[20] = test system: SF-268
[21] = test system: 786-0
[22] = test system: DLD-1
[23] = test system: UO-31
[24] = test system: U-251
[25] = test system: A549
[26] = test system: OVCAR-5
[27] = test system: HCT-15
[28] = test system: NCI-H460
[29] = test system: MDA-MB-435
[30] = test system: K562
[31] = test system: CCRF-CEM
[32] = test system: MDA-MB-231
[33] = test system: LOX IMVI
[34] = test system: SNB-75
[35] = test system: OVCAR-4
[36] = test system: COLO 205
[37] = test system: HOP-62
[38] = test system: A498
[39] = test system: SK-MEL-28
[40] = test system: T47D
[41] = test system: SNB-19
[42] = test system: PC-3
[43] = test system: EKVX
[44] = test system: IGROV-1
[45] = test system: HOP-92
[46] = test system: KM12
[47] = test system: UACC-257
[48] = test system: HCC 2998
[49] = test system: SF-539
[50] = test system: NCI-H522
[51] = test system: Malme-3M
[52] = test system: TK-10
[53] = test system: UACC-62
[54] = test system: MDA-N
[55] = test system: SF-295
[56] = test system: HL-60
[57] = test system: SK-OV-3
[58] = test system: RXF 393
[59] = test system: OVCAR-3
[60] = test system: ACHN
[61] = test system: NCI-H226

SMILES: COc1ccc2c(c1)-c1nn(CCCN(C)C)c3ccc([N+](=O)[O-])c(c13)N2
- GI50 [1]: 0.239 µM (active)
- GI50 [2]: 0.201 µM (active)
- GI50 [3]: 0.13 µM (active)
- GI50 [4]: 0.398 µM (active)
- GI50 [5]: 1.23 µM (inactive)
- GI50 [6]: 0.106 µM (active)
- GI50 [7]: 0.676 µM (active)
- GI50 [8]: 0.103 µM (active)
- GI50 [9]: 0.124 µM (active)
- GI50 [10]: 0.33 µM (active)
- GI50 [11]: 0.254 µM (active)
- GI50 [12]: 0.0787 µM (active)
- GI50 [13]: 0.102 µM (active)
- GI50 [14]: 0.361 µM (active)
- GI50 [15]: 0.0719 µM (active)
- GI50 [16]: 0.161 µM (active)
- GI50 [17]: 0.261 µM (active)
- GI50 [18]: 0.48 µM (active)
- GI50 [19]: 0.121 µM (active)
- GI50 [20]: 0.207 µM (active)
- GI50 [21]: 0.0991 µM (active)
- GI50 [22]: 0.181 µM (active)

SMILES: Cc1ccc2c(c1)C(C1Cc3cccc(C)c3C1=O)OC2=O (centres undefined)
- GI50 [23]: > 100 µM (inactive)
- GI50 [24]: > 100 µM (inactive)
- GI50 [1]: 81.1 µM (inactive)
- GI50 [25]: > 100 µM (inactive)
- GI50 [26]: > 100 µM (inactive)
- GI50 [27]: > 100 µM
- GI50 [28]: > 100 µM (inactive)
- GI50 [29]: 47.5 µM (inactive)
- GI50 [30]: 84.3 µM (inactive)
- GI50 [31]: > 100 µM (inactive)
- GI50 [2]: 30.3 µM (inactive)
- GI50 [32]: > 100 µM (inactive)
- GI50 [33]: 34.2 µM (inactive)
- GI50 [34]: 81.5 µM (inactive)
- GI50 [3]: 60.8 µM (inactive)
- GI50 [35]: 75.3 µM (inactive)
- GI50 [4]: > 100 µM (inactive)
- GI50 [5]: > 100 µM (inactive)
- GI50 [36]: > 100 µM (inactive)
- GI50 [6]: 96.4 µM (inactive)
- GI50 [37]: > 100 µM (inactive)
- GI50 [38]: 46.2 µM (inactive)
- GI50 [39]: > 100 µM (inactive)
- GI50 [40]: > 100 µM (inactive)
- GI50 [7]: > 100 µM (inactive)
- GI50 [8]: > 100 µM (inactive)
- GI50 [41]: > 100 µM (inactive)
- GI50 [9]: > 100 µM (inactive)
- GI50 [10]: 56.4 µM (inactive)
- GI50 [11]: > 100 µM (inactive)
- GI50 [42]: > 100 µM (inactive)
- GI50 [12]: > 100 µM (inactive)
- GI50 [13]: > 100 µM (inactive)
- GI50 [43]: 67.6 µM (inactive)
- GI50 [44]: > 100 µM (inactive)
- GI50 [45]: > 100 µM (inactive)
- GI50 [14]: > 100 µM (inactive)
- GI50 [46]: 96.2 µM (inactive)
- GI50 [15]: > 100 µM (inactive)
- GI50 [47]: > 100 µM (inactive)
- GI50 [48]: > 100 µM (inactive)
- GI50 [17]: > 100 µM (inactive)
- GI50 [49]: > 100 µM (inactive)
- GI50 [50]: > 100 µM (inactive)
- GI50 [18]: > 100 µM (inactive)
- GI50 [19]: > 100 µM (inactive)
- GI50 [51]: > 100 µM (inactive)
- GI50 [20]: > 100 µM (inactive)
- GI50 [52]: > 100 µM (inactive)
- GI50 [53]: 94.6 µM (inactive)
- GI50 [54]: > 100 µM (inactive)
- GI50 [55]: > 100 µM (inactive)
- GI50 [56]: 35.8 µM (inactive)
- GI50 [57]: > 100 µM (inactive)
- GI50 [21]: > 100 µM (inactive)
- GI50 [58]: 22.4 µM (inactive)
- GI50 [59]: > 100 µM (inactive)
- GI50 [60]: > 100 µM (inactive)
- GI50 [61]: 72.9 µM (inactive)

SMILES: CC1=CC[C@@]2(C)[C@@H]([C@@H]1C)[C@H]1CC[C@@H]3[C@@]4(C)CC[C@H](O)C(C)(C)[C@@H]4CC[C@@]3(C)[C@]1(C)C[C@@H]2O
- GI50 [23]: > 100 µM (inactive)
- GI50 [24]: 7.94 µM (inactive)
- GI50 [1]: 35.2 µM (inactive)
- GI50 [25]: 12.6 µM (inactive)
- GI50 [26]: > 50.8 µM (inactive)
- GI50 [27]: 26.1 µM
- GI50 [28]: 19.1 µM (inactive)
- GI50 [29]: 20.2 µM (inactive)
- GI50 [30]: 4.2 µM (inactive)
- GI50 [31]: 5.38 µM (inactive)
- GI50 [2]: 9.23 µM (inactive)
- GI50 [32]: 8.2 µM (inactive)
- GI50 [33]: 5.53 µM (inactive)
- GI50 [34]: 30.3 µM (inactive)
- GI50 [3]: 3.46 µM (inactive)
- GI50 [35]: 24.3 µM (inactive)
- GI50 [4]: 25.6 µM (inactive)
- GI50 [5]: 29.1 µM (inactive)
- GI50 [36]: 15 µM (inactive)
- GI50 [6]: 13.9 µM (inactive)
- GI50 [37]: 13.5 µM (inactive)
- GI50 [38]: > 20.7 µM (inactive)
- GI50 [39]: 6.44 µM (inactive)
- GI50 [40]: 23 µM (inactive)
- GI50 [7]: 24.8 µM (inactive)
- GI50 [8]: 6.61 µM (inactive)
- GI50 [41]: 37.8 µM (inactive)
- GI50 [9]: 21.8 µM (inactive)
- GI50 [10]: 13.7 µM (inactive)
- GI50 [11]: 8 µM (inactive)
- GI50 [42]: 18.6 µM (inactive)
- GI50 [12]: 22.2 µM (inactive)
- GI50 [13]: 11.6 µM (inactive)
- GI50 [43]: 5.61 µM (inactive)
- GI50 [44]: 17.1 µM (inactive)
- GI50 [45]: 25.6 µM (inactive)
- GI50 [14]: 6.52 µM (inactive)
- GI50 [46]: 23.3 µM (inactive)
- GI50 [15]: 33.6 µM (inactive)
- GI50 [47]: 17.4 µM (inactive)
- GI50 [48]: 17.7 µM (inactive)
- GI50 [17]: 37.2 µM (inactive)
- GI50 [49]: 27 µM (inactive)
- GI50 [50]: 2.52 µM (inactive)
- GI50 [18]: 37 µM (inactive)
- GI50 [19]: 14.1 µM (inactive)
- GI50 [51]: 30.4 µM (inactive)
- GI50 [20]: 9.79 µM (inactive)
- GI50 [52]: > 39.5 µM (inactive)
- GI50 [53]: > 45.8 µM (inactive)
- GI50 [54]: 32.4 µM (inactive)
- GI50 [55]: 13.2 µM (inactive)
- GI50 [56]: 50.1 µM (inactive)
- GI50 [57]: > 44.7 µM (inactive)
- GI50 [21]: 12.4 µM (inactive)
- GI50 [58]: 10.4 µM (inactive)
- GI50 [59]: 18.9 µM (inactive)
- GI50 [60]: 9.62 µM (inactive)
- GI50 [61]: 27.2 µM (inactive)

SMILES: CC1=CC(C)C(C)N(CCNS(=O)(=O)c2ccc(C)cc2)c2ccccc21 (centres undefined)
- GI50 [23]: 16.5 µM (inactive)
- GI50 [24]: 16.5 µM (inactive)
- GI50 [1]: 14.2 µM (inactive)
- GI50 [25]: 19.4 µM (inactive)
- GI50 [26]: 18.7 µM (inactive)
- GI50 [27]: 18.2 µM
- GI50 [28]: 12.8 µM (inactive)
- GI50 [29]: 13.5 µM (inactive)
- GI50 [30]: 14.7 µM (inactive)
- GI50 [31]: 13 µM (inactive)
- GI50 [2]: 12.2 µM (inactive)
- GI50 [32]: 13.8 µM (inactive)
- GI50 [33]: 10.2 µM (inactive)
- GI50 [34]: 15.7 µM (inactive)
- GI50 [3]: 16 µM (inactive)
- GI50 [35]: 13.3 µM (inactive)
- GI50 [4]: 13.6 µM (inactive)
- GI50 [5]: 17.1 µM (inactive)
- GI50 [36]: 12.8 µM (inactive)
- GI50 [6]: 12.2 µM (inactive)
- GI50 [37]: 16.3 µM (inactive)
- GI50 [38]: 14.6 µM (inactive)
- GI50 [39]: 12.9 µM (inactive)
- GI50 [40]: 10.8 µM (inactive)
- GI50 [7]: 12 µM (inactive)
- GI50 [8]: 12.6 µM (inactive)
- GI50 [41]: > 31.6 µM (inactive)
- GI50 [9]: 15.2 µM (inactive)
- GI50 [10]: > 10 µM (inactive)
- GI50 [11]: 11.1 µM (inactive)
- GI50 [42]: 12.5 µM (inactive)
- GI50 [12]: 12.9 µM (inactive)
- GI50 [13]: 12.5 µM (inactive)
- GI50 [43]: 16.4 µM (inactive)
- GI50 [44]: 17 µM (inactive)
- GI50 [45]: 18.8 µM (inactive)
- GI50 [14]: 12.3 µM (inactive)
- GI50 [46]: 19.1 µM (inactive)
- GI50 [15]: > 10 µM (inactive)
- GI50 [47]: 16.1 µM (inactive)
- GI50 [48]: 16.4 µM (inactive)
- GI50 [17]: 20.4 µM (inactive)
- GI50 [49]: 13.4 µM (inactive)
- GI50 [50]: 18.2 µM (inactive)
- GI50 [18]: 12.9 µM (inactive)
- GI50 [19]: 14.6 µM (inactive)
- GI50 [51]: 14.1 µM (inactive)
- GI50 [20]: 13 µM (inactive)
- GI50 [52]: 30.5 µM (inactive)
- GI50 [53]: 12.2 µM (inactive)
- GI50 [54]: 12.5 µM (inactive)
- GI50 [55]: 13.8 µM (inactive)
- GI50 [56]: 14 µM (inactive)
- GI50 [57]: 29.6 µM (inactive)
- GI50 [21]: 14.2 µM (inactive)
- GI50 [58]: 12.1 µM (inactive)
- GI50 [59]: 12.5 µM (inactive)
- GI50 [60]: 15.8 µM (inactive)
- GI50 [61]: 12.3 µM (inactive)
